Columns and labels:
Test in all cases: Bliss excess, mean over the matrix (fraction); higher = more synergy
[1] = test system: HuO-3N1 (Osteosarcoma)
How it was run: (§1)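 Cell lines in DMEM/F12 or RPMI with 10% FBS were plated in 1536-well plates, held 24 hours at 37°C, 5% CO2, then given two-drug dose matrices for 72 hours (DMSO typically 0.2%). Viability was read by CellTiter-Glo 2.0 luminescence and scaled as inhibition from 0 (vehicle wells) to 1 (blank wells). Combination Emax is the second-highest inhibition in the matrix; Bliss excess is observed combination effect minus expected EA + EB − EA·EB, EA and EB being single-agent effects.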

[2] = test system: AN3-CA (Endometrial Carcinoma)
How it was run: as §1

[3] = test system: OCI-AML5 (Acute Myeloid Leukemia)
How it was run: as §1

[4] = test system: SNU-175 (Colorectal Carcinoma)
How it was run: as §1

[5] = test system: OV-90 (Ovarian Carcinoma)
How it was run: as §1

[6] = test system: NCI-H196 (Small Cell Lung Carcinoma)
How it was run: as §1

[7] = test system: HSC-3 (Oral Cavity Carcinoma)
How it was run: as §1

[8] = test system: CHL-1 (Melanoma)
How it was run: as §1

[9] = test system: KYM-1 (Rhabdomyosarcoma)
How it was run: as §1

[10] = test system: NCI-H1623 (Lung Adenocarcinoma)
How it was run: as §1

[11] = test system: AsPC-1 (Pancreatic Carcinoma)
How it was run: as §1

[12] = test system: EB-3 (Burkitt's Lymphoma)
How it was run: as §1

[13] = test system: PANC-02-03 (Pancreatic Carcinoma)
How it was run: as §1

[14] = test system: 786-0 (Kidney Carcinoma)
How it was run: as §1

[15] = test system: PC-14 (Lung Adenocarcinoma)
How it was run: as §1

[16] = test system: Caov-3 (Ovarian Carcinoma)
How it was run: as §1

[17] = test system: NCI-H1755 (Lung Adenocarcinoma)
How it was run: as §1

[18] = test system: FLO-1 (Esophageal Adenocarcinoma)
How it was run: as §1

[19] = test system: COLO-684 (Endometrial Carcinoma)
How it was run: as §1

[20] = test system: NCI-H1155 (Non-Small Cell Lung Carcinoma)
How it was run: as §1

Compound: Cc1c2c(nn1C)CSCc1cc(n(C)n1)CSc1cc(c3ccccc3c1)OCCCc1c(C(=O)O)n(C)c3c-2c(Cl)ccc13 [AZD5991] + CCN(CCO)CCCOc1ccc2c(Nc3cc(CC(=O)Nc4cccc(F)c4)[nH]n3)ncnc2c1 [AZD2811] (first compound max 1 µM, 7x7, partner max 1 µM)
- Bliss excess [1]: 0.0023
- Bliss excess [2]: 0.0922
- Bliss excess [3]: -0.0165
- Bliss excess [4]: -0.0794
- Bliss excess [5]: 0.0136
- Bliss excess [6]: -0.029
- Bliss excess [7]: 0.0617
- Bliss excess [8]: 0.114
- Bliss excess [9]: 0.0646
- Bliss excess [10]: 0.0711
- Bliss excess [11]: -0.0331
- Bliss excess [12]: -0.0197
- Bliss excess [13]: -0.0029
- Bliss excess [14]: -0.0142
- Bliss excess [15]: 0.0381
- Bliss excess [16]: 0.0236
- Bliss excess [17]: 0.0561
- Bliss excess [18]: 0.0347
- Bliss excess [19]: 0.0271
- Bliss excess [20]: 0.0911

Compound: Cc1c2c(nn1C)CSCc1cc(n(C)n1)CSc1cc(c3ccccc3c1)OCCCc1c(C(=O)O)n(C)c3c-2c(Cl)ccc13 [AZD5991] + CN(C)CCCOc1ccc(-c2ccc3ncc4c(c3c2)n(C2CCOCC2)c(=O)n4C)cn1 [AZD0156] (first compound max 1 µM, 7x7, partner max 1 µM)
- Bliss excess [1]: -0.0067
- Bliss excess [2]: -0.0338
- Bliss excess [3]: 0.0075
- Bliss excess [4]: -0.0515
- Bliss excess [5]: -0.0068
- Bliss excess [6]: -0.0207
- Bliss excess [7]: 0.0527
- Bliss excess [8]: 0.0218
- Bliss excess [9]: 0.0046
- Bliss excess [10]: -0.015
- Bliss excess [11]: -0.0137
- Bliss excess [12]: -0.0005
- Bliss excess [13]: -0.0241
- Bliss excess [14]: -0.0109
- Bliss excess [15]: 0.0236
- Bliss excess [16]: 0.0036
- Bliss excess [17]: -0.0214
- Bliss excess [18]: -0.0135
- Bliss excess [19]: -0.0546
- Bliss excess [20]: 0.0521

Compound: Cc1c2c(nn1C)CSCc1cc(n(C)n1)CSc1cc(c3ccccc3c1)OCCCc1c(C(=O)O)n(C)c3c-2c(Cl)ccc13 [AZD5991] + C[C@@H]1COCCN1C2=NC(=NC(=C2)C3(CC3)[S@](=N)(=O)C)C4=C5C=CNC5=NC=C4 [AZD6738] (first compound max 1 µM, 7x7, partner max 10 µM)
- Bliss excess [1]: 0.0446
- Bliss excess [2]: 0.0454
- Bliss excess [3]: -0.0011
- Bliss excess [4]: 0.135
- Bliss excess [5]: 0.0235
- Bliss excess [6]: 0.0443
- Bliss excess [7]: 0.0094
- Bliss excess [8]: 0.0789
- Bliss excess [9]: 0.1
- Bliss excess [10]: 0.0581
- Bliss excess [11]: 0.0026
- Bliss excess [12]: 0.0209
- Bliss excess [13]: 0.0205
- Bliss excess [14]: -0.0098
- Bliss excess [15]: 0.0229
- Bliss excess [16]: 0.0293
- Bliss excess [17]: -0.0171
- Bliss excess [18]: -0.0301
- Bliss excess [19]: -0.0426
- Bliss excess [20]: 0.0521

Compound: Cc1c2c(nn1C)CSCc1cc(n(C)n1)CSc1cc(c3ccccc3c1)OCCCc1c(C(=O)O)n(C)c3c-2c(Cl)ccc13 [AZD5991] + C[C@@H](Nc1cc(F)cc(F)c1)c1cc(C(=O)N(C)C)cc2c(=O)cc(N3CCOCC3)oc12 [AZD8186] (first compound max 1 µM, 7x7, partner max 3 µM)
- Bliss excess [1]: 0.0324
- Bliss excess [2]: 0.0606
- Bliss excess [3]: -0.0146
- Bliss excess [4]: 0.0048
- Bliss excess [5]: -0.0496
- Bliss excess [6]: -0.0353
- Bliss excess [7]: -0.001
- Bliss excess [8]: 0.0292
- Bliss excess [9]: 0.0291
- Bliss excess [10]: -0.0133
- Bliss excess [11]: -0.0414
- Bliss excess [12]: -0.0275
- Bliss excess [13]: -0.0327
- Bliss excess [14]: 0.0005
- Bliss excess [15]: 0.0129
- Bliss excess [16]: 0.0338
- Bliss excess [17]: 0.0317
- Bliss excess [18]: -0.0486
- Bliss excess [19]: -0.0292
- Bliss excess [20]: -0.0105

Compound: Cc1c2c(nn1C)CSCc1cc(n(C)n1)CSc1cc(c3ccccc3c1)OCCCc1c(C(=O)O)n(C)c3c-2c(Cl)ccc13 [AZD5991] + Cc1cc2ncnn2cc1Nc1ncc2c(n1)n(C1CCOCC1)c(=O)n2C [AZD7648] (first compound max 1 µM, 7x7, partner max 10 µM)
- Bliss excess [1]: -0.0229
- Bliss excess [2]: -0.0411
- Bliss excess [3]: 0.0059
- Bliss excess [4]: -0.0125
- Bliss excess [5]: -0.039
- Bliss excess [6]: -0.0431
- Bliss excess [7]: -0.0448
- Bliss excess [8]: 0.0317
- Bliss excess [9]: 0.0136
- Bliss excess [10]: 0.0374
- Bliss excess [11]: -0.0517
- Bliss excess [12]: -0.0379
- Bliss excess [13]: -0.0151
- Bliss excess [14]: -0.0341
- Bliss excess [15]: -0.0088
- Bliss excess [16]: -0.0436
- Bliss excess [17]: 0.0189
- Bliss excess [18]: -0.0408
- Bliss excess [19]: 0.0076
- Bliss excess [20]: -0.017

Compound: C[C@@H]1COCCN1c1cc(C2([S@](C)(=N)=O)CC2)nc(-c2ccnc3[nH]ccc23)n1 [AZD6738] + O=C(c1cc(Cc2n[nH]c(=O)c3ccccc23)ccc1F)N1CCN(C(=O)C2CC2)CC1 [Olaparib] (first compound max 10 µM, 7x7, partner max 10 µM)
- Bliss excess [1]: -0.0071
- Bliss excess [2]: 0.0208
- Bliss excess [3]: -0.0071
- Bliss excess [4]: 0.0311
- Bliss excess [5]: 0.0053
- Bliss excess [6]: 0.0275
- Bliss excess [7]: 0.0043
- Bliss excess [8]: -0.0498
- Bliss excess [9]: 0.0088
- Bliss excess [10]: -0.0325
- Bliss excess [11]: -0.027
- Bliss excess [12]: -0.0955
- Bliss excess [13]: 0.0287
- Bliss excess [14]: 0.0473
- Bliss excess [15]: 0.0132
- Bliss excess [16]: -0.0231
- Bliss excess [17]: -0.0131
- Bliss excess [18]: -0.0348
- Bliss excess [19]: -0.109
- Bliss excess [20]: 0.0374

Reference: the supplement of paper PMC11061612
